Reference: patent US20230192705A1, “SHP2 INHIBITORS, COMPOSITIONS AND USES THEREOF” (Betta Pharmaceuticals Co., Ltd, priority 2020, published 2023)

Biological target: T1, SHP2 (Homo sapiens, UniProt Q06124)
T1 sequence (Q06124 1-593): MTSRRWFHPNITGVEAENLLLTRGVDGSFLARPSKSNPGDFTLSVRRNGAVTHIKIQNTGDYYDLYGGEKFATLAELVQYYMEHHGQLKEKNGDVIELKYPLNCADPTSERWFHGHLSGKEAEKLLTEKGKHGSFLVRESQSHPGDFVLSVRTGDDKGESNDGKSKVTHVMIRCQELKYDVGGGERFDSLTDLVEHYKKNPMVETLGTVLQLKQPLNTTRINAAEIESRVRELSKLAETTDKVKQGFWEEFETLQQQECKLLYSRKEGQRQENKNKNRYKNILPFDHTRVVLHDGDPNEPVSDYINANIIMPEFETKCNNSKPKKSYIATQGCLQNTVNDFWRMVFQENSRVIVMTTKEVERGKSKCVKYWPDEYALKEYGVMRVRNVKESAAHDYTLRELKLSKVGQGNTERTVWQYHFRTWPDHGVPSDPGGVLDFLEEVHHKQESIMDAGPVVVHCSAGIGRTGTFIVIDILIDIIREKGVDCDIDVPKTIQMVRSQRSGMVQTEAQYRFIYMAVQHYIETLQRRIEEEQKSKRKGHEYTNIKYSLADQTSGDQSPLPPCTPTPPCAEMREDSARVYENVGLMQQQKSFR
Assay: SHP2 allosteric inhibitor enzyme activity assay (DiFMUP fluorescence)
Format: biochemical
Conditions: class symbols
How it was run: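 SHP2 activated by 0.5 μM IRS1_pY1172(dPEG8)pY1222 peptide, 0.2 ng enzyme per well, 1 h at room temperature with compound (1 μM top, 3-fold series), then DiFMUP substrate 1 h. Buffer: 60 mM HEPES, 75 mM NaCl, 75 mM KCl, 0.05% BRIJ-35, 1 mM EDTA, 5 mM DTT. Fluorescence ex 340/em 450 nm; IC50 by variable-slope fit.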

Structure (SMILES) | IC50 [nM]
COc1ccccc1C1(c2n[nH]c3nc(N4CCC5(CC4)CO[C@@H](C)[C@H]5N)[nH]c(=O)c23)CC1 [Example 306, 6-((3S,4S)-4-amino-3-methyl-2-oxa-8-azaspiro[4.5]decan-8-yl)-3-(1-(2-methoxyphenyl)cyclopropyl)-1,5-dihydro-4H-pyrazolo[3,4-d]pyrimidin-4-one] | 20 to 60
N[C@@H]1c2ccccc2CC12CCN(c1nc3[nH]nc(C4(c5cccc(C6CCOC6)c5)CC4)c3c(=O)[nH]1)CC2 (stereo partly drawn) [Example 39, 6-((S)-1-amino-1,3-dihydrospiro[indene-2,4′-piperidin]-1′-yl)-3-(1-(3-(tetrahydrofuran-3-yl)phenyl)cyclopropyl)-1,5-dihydro-4H-pyrazolo[3,4-d]pyrimidin-4-one] | ≤ 20
N[C@@H]1c2ccccc2CC12CCN(c1nc3[nH]nc(C4=CCCc5sccc54)c3c(=O)[nH]1)CC2 [Example 117, (S)-6-(1-amino-1,3-dihydrospiro[indene-2,4′-piperidin]-1′-yl)-3-(6,7-dihydrobenzo[b]thiophen-4-yl)-1,5-dihydro-4H-pyrazolo[3,4-d]pyrimidin-4-one] | ≤ 20
N[C@@H]1c2ccccc2CC12CCN(c1nc3[nH]nc(C4(c5ccnc(N6CCC6)c5Cl)CC4)c3c(=O)[nH]1)CC2 [Example 66, (S)-6-(1-amino-1,3-dihydrospiro[indene-2,4′-piperidin]-1′-yl)-3-(1-(2-(azetidin-1-yl)-3-chloropyridin-4-yl)cyclopropyl)-1,5-dihydro-4H-pyrazolo[3,4-d]pyrimidin-4-one] | ≤ 20
COc1ccc(C2(c3n[nH]c4nc(N5CCC6(CC5)Cc5ccccc5[C@H]6N)[nH]c(=O)c34)CC2)c(OC)c1 [Example 232, (S)-6-(1-amino-1,3-dihydrospiro[indene-2,4′-piperidin]-1′-yl)-3-(1-(2,4-dimethoxyphenyl)cyclopropyl)-1,5-dihydro-4H-pyrazolo[3,4-d]pyrimidin-4-one] | ≤ 20
N[C@@H]1c2ccccc2CC12CCN(c1nc3[nH]nc(C4(c5ccccc5)CCCCC4)c3c(=O)[nH]1)CC2 [Example 99, (S)-6-(1-amino-1,3-dihydrospiro[indene-2,4′-piperidin]-1′-yl)-3-(1-phenylcyclohexyl)-1,5-dihydro-4H-pyrazolo[3,4-d]pyrimidin-4-one] | 20 to 60
N[C@@H]1c2ccccc2CC12CCN(c1nc3[nH]nc(C4=CCC(F)(F)c5ncccc54)c3c(=O)[nH]1)CC2 [Example 169, (S)-6-(1-amino-1,3-dihydrospiro[indene-2,4′-piperidin]-1′-yl)-3-(8,8-difluoro-7,8-dihydroquinolin-5-yl)-1,5-dihydro-4H-pyrazolo[3,4-d]pyrimidin-4-one] | ≤ 20
N[C@@H]1c2ccccc2CC12CCN(c1nc3[nH]nc(C4(c5ccnc(Cl)c5)CC4)c3c(=O)[nH]1)CC2 [Example 25, (S)-6-(1-amino-1,3-dihydrospiro[indene-2,4′-piperidin]-1′-yl)-3-(1-(2-chloropyridin-4-yl)cyclopropyl)-1,5-dihydro-4H-pyrazolo[3,4-d]pyrimidin-4-one] | ≤ 20
N[C@@H]1c2nc(Cl)sc2CC12CCN(c1nc3[nH]nc(C4(c5ccccc5)CC4)c3c(=O)[nH]1)CC2 [Example 193, (S)-6-(4-amino-2-chloro-4,6-dihydrospiro[cyclopenta[d]thiazole-5,4′-piperidin]-1′-yl)-3-(1-phenylcyclopropyl)-1,5-dihydro-4H-pyrazolo[3,4-d]pyrimidin-4-one] | ≤ 20
CC1(C)C=C(c2n[nH]c3nc(N4CCC5(CC4)Cc4ccccc4[C@H]5N)[nH]c(=O)c23)c2cccnc2C1 [Example 143, (S)-6-(1-amino-1,3-dihydrospiro[indene-2,4′-piperidin]-1′-yl)-3-(7,7-dimethyl-7,8-dihydroquinolin-5-yl)-1,5-dihydro-4H-pyrazolo[3,4-d]pyrimidin-4-one] | ≤ 20
Nc1ccccc1C1(c2n[nH]c3nc(N4CCC5(CC4)Cc4ccccc4[C@H]5N)[nH]c(=O)c23)CC1 [Example 22, (S)-6-(1-amino-1,3-dihydrospiro[indene-2,4′-piperidin]-1′-yl)-3-(1-(2-aminophenyl)cyclopropyl)-1,5-dihydro-4H-pyrazolo[3,4-d]pyrimidin-4-one] | ≤ 20
CC1(C)CC=C(c2n[nH]c3nc(N4CCC5(CC4)Cc4ccccc4C5N)[nH]c(=O)c23)c2cccnc21 (stereo not shown) [Example 127, 6-(1-amino-1,3-dihydrospiro[indene-2,4′-piperidin]-1′-yl)-3-(8,8-dimethyl-7,8-dihydroquinolin-5-yl)-1,5-dihydro-4H-pyrazolo[3,4-d]pyrimidin-4-one] | ≤ 20
N[C@@H]1c2ccccc2CC12CCN(c1cnc3c([C@H]4C[C@H]4c4ccccc4)n[nH]c3n1)CC2 [Example 106, (S)-1′-(3-((1S,2R)-2-phenylcyclopropyl)-1H-pyrazolo[3,4-b]pyrazin-6-yl)-1,3-dihydrospiro[indene-2,4′-piperidin]-1-amine] | ≤ 20
N[C@@H]1c2ccccc2CC12CCN(c1nc3[nH]nc(C4(c5ccnc6ccccc56)CC4)c3c(=O)[nH]1)CC2 [Example 78, (S)-6-(1-amino-1,3-dihydrospiro[indene-2,4′-piperidin]-1′-yl)-3-(1-(quinolin-4-yl)cyclopropyl)-1,5-dihydro-4H-pyrazolo[3,4-d]pyrimidin-4-one] | ≤ 20
CCOC(=O)Nc1ccc(C2(c3n[nH]c4nc(N5CCC6(CC5)CO[C@@H](C)[C@H]6N)[nH]c(=O)c34)CC2)cc1 [Example 303, ethyl(4-(1-(6-((3S,4S)-4-amino-3-methyl-2-oxa-8-azaspiro[4.5]decan-8-yl)-4-oxo-4,5-dihydro-1H-pyrazolo[3,4-d]pyrimidin-3-yl)cyclopropyl)phenyl)carbamate] | 20 to 60
Cc1ncccc1C1(c2n[nH]c3nc(N4CCC5(CC4)Cc4ccccc4[C@H]5N)[nH]c(=O)c23)CC1 [Example 89] | ≤ 20

Second part, the compound after the results:

IC50 [nM] | Structure (SMILES)
≤ 20 | N[C@@H]1c2ccccc2CC12CCN(c1nc3[nH]nc(C4(c5cccnc5)CC4)c3c(=O)[nH]1)CC2 [Example 247, (S)-6-(1-amino-1,3-dihydrospiro[indene-2,4′-piperidin]-1′-yl)-3-(1-(pyridin-3-yl)cyclopropyl)-1,5-dihydro-4H-pyrazolo[3,4-d]pyrimidin-4-one]
≤ 20 | CSc1ccc2c(c1)[C@@H](N)C1(CCN(c3nc4[nH]nc(C5(c6ccccc6)CC5)c4c(=O)[nH]3)CC1)C2 [Example 196, (S)-6-(1-amino-6-(methylthio)-1,3-dihydrospiro[indene-2,4′-piperidin]-1′-yl)-3-(1-phenylcyclopropyl)-1,5-dihydro-4H-pyrazolo[3,4-d]pyrimidin-4-one]
> 60 | C[C@@H]1OCC2(CCN(c3nc(N)c(C4(c5ccccc5)CC4)c(=O)n3C)CC2)[C@@H]1N [Example 264, 6-amino-2-((3S,4S)-4-amino-3-methyl-2-oxa-8-azaspiro[4.5]decan-8-yl)-3-methyl-5-(1-phenylcyclopropyl)pyrimidin-4(3H)-one]
≤ 20 | N[C@@H]1c2cc(F)ccc2CC12CCN(c1nc3[nH]nc(C4(c5ccccc5)CC4)c3c(=O)[nH]1)CC2 [Example 195, (S)-6-(1-amino-6-fluoro-1,3-dihydrospiro[indene-2,4′-piperidin]-1′-yl)-3-(1-phenylcyclopropyl)-1,5-dihydro-4H-pyrazolo[3,4-d]pyrimidin-4-one]
20 to 60 | N[C@@H]1Cc2ccccc2C12CCN(c1nc3[nH]nc(C4(c5ccccc5)CC4)c3c(=O)[nH]1)CC2 [Example 198, (R)-6-(2-amino-2,3-dihydrospiro[indene-1,4′-piperidin]-1′-yl)-3-(1-phenylcyclopropyl)-1,5-dihydro-4H-pyrazolo[3,4-d]pyrimidin-4-one]
≤ 20 | CC1(C)CC=C(c2n[nH]c3nc(N4CCC5(CC4)Cc4ccccc4[C@H]5N)[nH]c(=O)c23)c2ccc(C(F)(F)F)nc21 [Example 145, (S)-6-(1-amino-1,3-dihydrospiro[indene-2,4′-piperidin]-1′-yl)-3-(8,8-dimethyl-2-(trifluoromethyl)-7,8-dihydroquinolin-5-yl)-1,5-dihydro-4H-pyrazolo[3,4-d]pyrimidin-4-one]
≤ 20 | N#Cc1cc(C2(c3n[nH]c4nc(N5CCC6(CC5)Cc5ccccc5[C@H]6N)[nH]c(=O)c34)CC2)ccn1 [Example 26, (S)-4-(1-(6-(1-amino-1,3-dihydrospiro[indene-2,4′-piperidin]-1′-yl)-4-oxo-4,5-dihydro-1H-pyrazolo[3,4-d]pyrimidin-3-yl)cyclopropyl)picolinonitrile]
> 60 | C[C@@H]1OCC2(CCN(c3ncc(C4(c5ccccc5)CC4)nc3CO)CC2)[C@@H]1N [Example 260, (3-((3S,4S)-4-amino-3-methyl-2-oxa-8-azaspiro[4.5]decan-8-yl)-6-(1-phenylcyclopropyl)pyrazin-2-yl)methanol]
≤ 20 | N[C@@H]1c2ccccc2CC12CCN(c1nc3[nH]nc(C4=CCCc5ncccc54)c3c(=O)[nH]1)CC2 [Example 112, (S)-6-(1-amino-1,3-dihydrospiro[indene-2,4′-piperidin]-1′-yl)-3-(7,8-dihydroquinolin-5-yl)-1,5-dihydro-4H-pyrazolo[3,4-d]pyrimidin-4-one]
